In patent US20230331803A1, “CO-AGONISTS OF THE GLP-1 AND AMYLIN RECEPTORS” (priority 2020, published 2023):
Like-named read-outs stand apart in the source and are kept apart here. Starred links: 1 amine or outer side, 2 acyl side, 3 side chain; linkers in the order of their positions; H or OH if unused. Non-standard residues stand in square brackets, D forms with d. Groups on a side chain read outwards from the residue. *: point of attachment. Butyryl(4-SO2NHCO(CH2)16Tz) = O=C(CCCCCCCCCCCCCCCCc1nnn[nH]1)NS(=O)(=O)CCCC(=O)*; C20 diacid = O=C(O)CCCCCCCCCCCCCCCCCCC(=O)*; C18 diacid = O=C(O)CCCCCCCCCCCCCCCCC(=O)*; C16 diacid = O=C(O)CCCCCCCCCCCCCCC(=O)*; γGlu = O=C(O)[C@H](CCC(=O)[*:2])N[*:1]; Desaminohistidyl = O=C(CCc1c[nH]cn1)*; X2 = O=C(CCCCCCCCCCCCCCCCc1nnn[nH]1)*; εLys = N[C@@H](CCCCN[*:1])C(=O)[*:2]; Trx = NC[C@H]1CC[C@H](C(=O)O)CC1; AEEA = NCCOCCOCC(=O)O; Aib = CC(C)(N)C(=O)O; Ahx = NCCCCCC(=O)O

Key:
[1] = biological target: T1, human amylin receptor (hAmyR3) (Homo sapiens, UniProt O60896+P30988); experiment: Human amylin receptor in vitro potency assay (CRE-luciferase reporter, BHK cells); type: cell-based;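 note: BHK cells expressing human calcitonin receptor plus RAMP3 (amylin-3 receptor) with a CRE-luciferase reporter, agonist activity read as luminescence from cAMP-driven transcription, 7-point serial dilutions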
T1 construct: host or cells: BHK cells (Hollex-1 line: human calcitonin receptor (a) + CRE-Luc), further transfected with human RAMP3
T1 sequence (P30988 25-474): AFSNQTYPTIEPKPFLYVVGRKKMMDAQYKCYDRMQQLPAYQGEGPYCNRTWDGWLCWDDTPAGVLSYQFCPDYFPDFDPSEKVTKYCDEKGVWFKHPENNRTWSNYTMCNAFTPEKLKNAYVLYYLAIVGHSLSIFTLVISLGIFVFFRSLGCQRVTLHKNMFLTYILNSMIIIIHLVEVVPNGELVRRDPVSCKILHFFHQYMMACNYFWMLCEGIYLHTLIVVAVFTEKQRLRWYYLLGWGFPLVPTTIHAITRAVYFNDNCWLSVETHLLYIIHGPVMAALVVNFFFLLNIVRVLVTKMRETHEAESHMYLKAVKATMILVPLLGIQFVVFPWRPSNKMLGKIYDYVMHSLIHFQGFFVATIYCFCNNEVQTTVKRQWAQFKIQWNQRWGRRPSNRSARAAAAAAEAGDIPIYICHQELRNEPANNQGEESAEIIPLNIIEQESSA
T1 sequence (O60896 24-148): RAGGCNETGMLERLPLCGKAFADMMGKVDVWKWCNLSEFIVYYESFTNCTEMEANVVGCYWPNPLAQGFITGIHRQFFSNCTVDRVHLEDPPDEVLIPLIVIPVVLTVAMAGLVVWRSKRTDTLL

human GLP-1 receptor = biological target: T2, human GLP-1 receptor (Homo sapiens, UniProt P43220); experiment: Human GLP-1 receptor in vitro potency assay (CRE-luciferase reporter, BHK cells); type: cell-based
T2 construct: expressed in transfected cells; host or cells: BHK (Baby Hamster Kidney) cells, clone BHK 467-12A KZ-10, stably transfected, with CRE-luciferase reporter
T2 sequence (P43220 24-463): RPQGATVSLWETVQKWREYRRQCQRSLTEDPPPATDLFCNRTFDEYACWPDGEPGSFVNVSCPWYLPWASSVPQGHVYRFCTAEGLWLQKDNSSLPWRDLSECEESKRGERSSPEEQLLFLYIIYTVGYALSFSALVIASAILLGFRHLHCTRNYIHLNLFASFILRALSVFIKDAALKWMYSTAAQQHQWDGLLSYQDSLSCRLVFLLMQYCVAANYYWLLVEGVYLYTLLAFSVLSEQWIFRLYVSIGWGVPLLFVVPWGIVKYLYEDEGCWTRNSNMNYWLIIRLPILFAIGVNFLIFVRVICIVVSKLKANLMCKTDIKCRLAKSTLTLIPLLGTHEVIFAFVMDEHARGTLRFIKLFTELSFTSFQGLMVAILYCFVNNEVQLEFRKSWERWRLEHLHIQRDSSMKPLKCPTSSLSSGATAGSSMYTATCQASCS
Description: It is thus possible to measure GLP-1 receptor activity using a CRE-luciferase reporter gene introduced into Baby Hamster Kidney (BHK) cells co-expressing the GLP-1 receptor.
Cells were aliquoted and stored at -180° C. until use.
Plates were sealed and incubated at room temperature with gentle shaking for 30 minutes while protected from light. Luminescence was detected on a luminescence plate reader e.g. a Synergy 2 (BioTek).

[2] = Table 4a, BHK hAmyR3/CRE-Luc cells, 3 hours, read-out: Human AmyR3 potency [EC50 (pM)]
[3] = Table 4a, BHK cells expressing human GLP-1R, CRE-Luc, 3 hours, read-out: Human GLP-1R potency [EC50 (pM)]

| Molecule | EC50 [1, 2] | EC50 (human GLP-1 receptor; [3]) | also measured |
| --- | --- | --- | --- |
| H[Aib]EGTFTSDVSSYLEEQAARK([εLys-AEEA-AEEA-γGlu-C18 diacid])FIAWLVRGK([εLys-AEEA-AEEA-γGlu-C18 diacid])GGGGGGGGGEASELSTAALGRLSAELHELATLPRTETGSGSP-NH2 [Compound 0110] | – | – | EC50 [1]: 40.7 pM; EC50 (human GLP-1 receptor): 2.7 pM |
| H-H[Aib]EGTFTSDVSSYLEEQAAREFIAWLVRGK([AEEA-AEEA-γGlu-C16 diacid])GGGGGEASELSTAALGRLSAELHELATLPRTETGK([AEEA-AEEA-γGlu-C16 diacid])GSP-NH2 [Compound 0285] | 78.9 pM | 19 pM | – |
| Desaminohistidyl-[Aib]EGTFTSDVSSYLEEQAAREFIAWLVRGRK([γGlu-C20 diacid])EASELSTAALGRLSAELHELATLPRTETGSGSP-NH2 [Compound 0142] | 15.4 pM | 88.2 pM | – |
| H-H[Aib]EGTFTSDVSSYLEEQAAREFIAWLVRGRK(Butyryl(4-SO2NHCO(CH2)16Tz))ELSTAALGRLSAELHELATLPRTETGSGSP-NH2 [Compound 0102] | 9.8 pM | 14.7 pM | – |
| H-H[Aib]EGTFTSDVSSYLEEQAAREFIAWLVRGRK([Ahx-Ahx-γGlu-C20 diacid])GGGGEASELSTAALGRLSAELHELATLPRTETGSGSP-NH2 [Compound 0659] | 11.5 pM | 4.7 pM | – |
| H-H[Aib]EGTFTSDVSSYLEEQAAREFIEWLVRGRK([εLys-AEEA-AEEA-γGlu-Trx-C20 diacid])EASELSTAALGRLSAELHELATLPRTETGSGSP-NH2 [Compound 0438] | 27.5 pM | 11.8 pM | – |
| H[Aib]EGTFTSDVSSYLEEQAARK([AEEA-AEEA-γGlu-C18 diacid])FIAWLVRGK([AEEA-AEEA-γGlu-C18 diacid])GGGGGGGGGEASELSTAALGRLSAELHELATLPRTETGSGSP-NH2 [Compound 0109] | 19.1 pM | 3.2 pM | – |
| CC[C@H](C)[C@H](NC(=O)[C@H](Cc1ccccc1)NC(=O)[C@H](CCC(=O)O)NC(=O)[C@H](CCCNC(=N)N)NC(=O)[C@H](C)NC(=O)[C@H](C)NC(=O)[C@H](CCC(N)=O)NC(=O)[C@H](CCC(=O)O)NC(=O)[C@H](CCC(=O)O)NC(=O)[C@H](CC(C)C)NC(=O)[C@H](Cc1ccc(O)cc1)NC(=O)[C@H](CO)NC(=O)[C@H](CO)NC(=O)[C@H](CCCCNC(=O)COCCOCCNC(=O)COCCOCCNC(=O)CC[C@H](NC(=O)CCCCCCCCCCCCCCCCC(=O)O)C(=O)O)NC(=O)[C@H](CC(=O)O)NC(=O)[C@H](CO)NC(=O)[C@@H](NC(=O)[C@H](Cc1ccccc1)NC(=O)[C@@H](NC(=O)CNC(=O)[C@H](CCC(=O)O)NC(=O)[C@H](Cc1c[nH]c2ccccc12)NC(=O)[C@@H](N)Cc1c[nH]cn1)[C@@H](C)O)[C@@H](C)O)C(=O)N[C@@H](CCC(=O)O)C(=O)N[C@@H](Cc1c[nH]c2ccccc12)C(=O)N[C@@H](CC(C)C)C(=O)N[C@H](C(=O)N[C@@H](CCCNC(=N)N)C(=O)NCC(=O)N[C@@H](CCCNC(=N)N)C(=O)NCC(=O)N[C@@H](CCC(=O)O)C(=O)N[C@@H](C)C(=O)N[C@@H](CO)C(=O)N[C@@H](CCC(=O)O)C(=O)N[C@@H](CC(C)C)C(=O)N[C@@H](CO)C(=O)N[C@H](C(=O)N[C@@H](C)C(=O)N[C@@H](C)C(=O)N[C@@H](CC(C)C)C(=O)NCC(=O)N[C@@H](CCCNC(=N)N)C(=O)N[C@@H](CC(C)C)C(=O)N[C@@H](CO)C(=O)N[C@@H](C)C(=O)N[C@@H](CCC(=O)O)C(=O)N[C@@H](CC(C)C)C(=O)N[C@@H](Cc1c[nH]cn1)C(=O)N[C@@H](CCC(=O)O)C(=O)N[C@@H](CC(C)C)C(=O)N[C@@H](C)C(=O)N[C@H](C(=O)N[C@@H](CC(C)C)C(=O)N1CCC[C@H]1C(=O)N[C@@H](CCCNC(=N)N)C(=O)N[C@H](C(=O)N[C@@H](CCC(=O)O)C(=O)N[C@H](C(=O)NCC(=O)N[C@@H](CO)C(=O)NCC(=O)N[C@@H](CO)C(=O)N1CCC[C@H]1C(N)=O)[C@@H](C)O)[C@@H](C)O)[C@@H](C)O)[C@@H](C)O)C(C)C [Compound 0273] | – | – | EC50 [1]: 18 pM; EC50 (human GLP-1 receptor): 24.9 pM |
| H-H[Aib]EGTFTSK([AEEA-AEEA-γGlu-Trx-C20 diacid])VSSYLEEQAAREFIEWLVRGRGEASELSTAALGRLSAELHELATLPRTETGSGSP-NH2 [Compound 0417] | 21 pM | 97.8 pM | – |
| H-H[Aib]EGTFTSDVSSYLEEQAAREFIAWLVRGRK([AEEA-AEEA-γGlu-C20 diacid])GGGGSGGGEASELSTAALGRLSAELHELATLPRTETGSGSP-NH2 [Compound 0638] | 6.9 pM | 4.6 pM | – |
| H-H[Aib]EGTFTSDVSSYLEEQAAREFIAWLVRGRK([AEEA-AEEA-γGlu-X2])GGGGEASELSTAALGRLSAELHELATLPRTETGSGSP-NH2 [Compound 0655] | 11.4 pM | 3 pM | – |
| H-H[Aib]EGTFTSDVSSYLEGQAAREFIAWLVRGK([AEEA-AEEA-γGlu-C18 diacid])GEGEGEEASELSTAALGRLSAELHELATLPRTETGSGSP-NH2 [Compound 0009] | 49.5 pM | 7.9 pM | – |
| HWEGTFTSD-K([(2S)-2-Amino-6-[[2-[2-[2-[[2-[2-[2-[[(4S)-4-Carboxy-4-[[4-[(19-Carboxynonadecanoylamino)Methyl]Cyclohexanecarbonyl]Amino]Butanoyl]Amino]Ethoxy]Ethoxy]Acetyl]Amino]Ethoxy]Ethoxy]Acetyl]Amino]Hex Anoyl])-SSYLEEQAAREFIEWLVRGRGEASELSTAALGRLSAELHELATLPRTETGSGSP-amide [Compound 0433] | 12.9 pM | 30.7 pM | – |
| CC[C@H](C)[C@H](NC(=O)[C@H](Cc1ccccc1)NC(=O)[C@H](CCC(=O)O)NC(=O)[C@H](CCCCNC(=O)COCCOCCNC(=O)COCCOCCNC(=O)CC[C@H](NC(=O)CCCCCCCCCCCCCCCCC(=O)O)C(=O)O)NC(=O)[C@H](C)NC(=O)[C@H](C)NC(=O)[C@H](CCC(N)=O)NC(=O)CNC(=O)[C@H](CCC(=O)O)NC(=O)[C@H](CC(C)C)NC(=O)[C@H](Cc1ccc(O)cc1)NC(=O)[C@H](CO)NC(=O)[C@H](CO)NC(=O)[C@@H](NC(=O)[C@H](CC(=O)O)NC(=O)[C@H](CO)NC(=O)[C@@H](NC(=O)[C@H](Cc1ccccc1)NC(=O)[C@@H](NC(=O)CNC(=O)[C@H](CCC(=O)O)NC(=O)C(C)(C)NC(=O)[C@@H](N)Cc1c[nH]cn1)[C@@H](C)O)[C@@H](C)O)C(C)C)C(=O)N[C@@H](C)C(=O)N[C@@H](Cc1c[nH]c2ccccc12)C(=O)N[C@@H](CC(C)C)C(=O)N[C@H](C(=O)N[C@@H](CCCNC(=N)N)C(=O)NCC(=O)N[C@@H](CCCNC(=N)N)C(=O)NCC(=O)NCC(=O)N[C@@H](CCC(N)=O)C(=O)N[C@@H](CCC(=O)O)C(=O)N1CCC[C@H]1C(=O)NCC(=O)N[C@@H](CCC(N)=O)C(=O)N[C@@H](CCC(=O)O)C(=O)N1CCC[C@H]1C(=O)N[C@@H](CCCCNC(=O)COCCOCCNC(=O)COCCOCCNC(=O)CC[C@H](NC(=O)CCCCCCCCCCCCCCCCC(=O)O)C(=O)O)C(=O)N[C@@H](CCC(=O)O)C(=O)N[C@@H](C)C(=O)N[C@@H](CO)C(=O)N[C@@H](CCC(=O)O)C(=O)N[C@@H](CC(C)C)C(=O)N[C@@H](CO)C(=O)N[C@H](C(=O)N[C@@H](C)C(=O)N[C@@H](C)C(=O)N[C@@H](CC(C)C)C(=O)NCC(=O)N[C@@H](CCCNC(=N)N)C(=O)N[C@@H](CC(C)C)C(=O)N[C@@H](CO)C(=O)N[C@@H](C)C(=O)N[C@@H](CCC(=O)O)C(=O)N[C@@H](CC(C)C)C(=O)N[C@@H](Cc1c[nH]cn1)C(=O)N[C@@H](CCC(=O)O)C(=O)N[C@@H](CC(C)C)C(=O)N[C@@H](C)C(=O)N[C@H](C(=O)N[C@@H](CC(C)C)C(=O)N1CCC[C@H]1C(=O)N[C@@H](CCCNC(=N)N)C(=O)N[C@H](C(=O)N[C@@H](CCC(=O)O)C(=O)N[C@H](C(=O)NCC(=O)N[C@@H](CO)C(=O)NCC(=O)N[C@@H](CO)C(=O)N1CCC[C@H]1C(N)=O)[C@@H](C)O)[C@@H](C)O)[C@@H](C)O)[C@@H](C)O)C(C)C [Compound 0071] | – | – | EC50 [1]: 159 pM; EC50 (human GLP-1 receptor): 69.4 pM |
| H-H[Aib]EGTFTSDVSSYLEGQAAK([AEEA-AEEA-γGlu-C18 diacid])EFIAWLVRGRGGGGGGGGGGGGGGGGGEASELSTAALGRLSAELHELATLPRTETGSGSP-NH2 [Compound 0093] | 8.6 pM | 7.5 pM | – |
| H-H[Aib]EGTFTSDVSSYLEEQAARK([AEEA-AEEA-γGlu-C16 diacid])FIAWLVK([AEEA-AEEA-γGlu-C16 diacid])GRGGGEASELSTAALGRLSAELHELATLPRTETGSGSP-NH2 [Compound 0077] | 25.7 pM | 2.1 pM | – |
| H-H[Aib]EGTFTSDVSSYLEEQAAREFIAWLVRGRK([AEEA-AEEA-γGlu-C18 diacid])EASELSTAALGRLSAELHELATLPRTETGSGSP-NH2 [Compound 0115] | 22.8 pM | 2.2 pM | – |
| H-H[Aib]EGTFTSDVSK([AEEA-AEEA-γGlu-C16 diacid])YLEEQAVREFIAK([AEEA-AEEA-γGlu-C16 diacid])LVRGRGGGEASELSTAALGRLSAELHELATLPRTETGSGSP-NH2 [Compound 0483] | 36.8 pM | 33.7 pM | – |
| H-H[Aib]EGTFTSDVSSYLEGQAAKEIFAWLVRGRK([εLys-AEEA-AEEA-γGlu-C18 diacid])GGEASELSTAALGRLSAELHELATLPRTETGSGSP-NH2 [Comparator compound 0164, reference compound] | – | – | EC50 ([1]; Table 4c, further comparator compounds, read-out: Human AmyR3 potency [EC50 (pM)]): 29.6 pM; EC50 (human GLP-1 receptor; Table 4c, further comparator compounds): 852 pM; Ability to agonise the GLP-1 receptor, in words (human GLP-1 receptor; Tables 4a-4c): impaired their ability to agonise (activate) the GLP-1 receptor |
